The text below walks through data of US11608383B2, “Bispecific antibody against CD3 and CD20 in combination therapy for treating follicular lymphoma” (GENMAB A/S, priority 2020, dated 2023).

One data set concerns follicular lymphoma. The note with it: double-refractory cases; Salles et al., Haematologica 2017; cited from earlier work.
The target of another data set is T1, CD20 (Homo sapiens, UniProt P11836).
T1 sequence (P11836 1-297): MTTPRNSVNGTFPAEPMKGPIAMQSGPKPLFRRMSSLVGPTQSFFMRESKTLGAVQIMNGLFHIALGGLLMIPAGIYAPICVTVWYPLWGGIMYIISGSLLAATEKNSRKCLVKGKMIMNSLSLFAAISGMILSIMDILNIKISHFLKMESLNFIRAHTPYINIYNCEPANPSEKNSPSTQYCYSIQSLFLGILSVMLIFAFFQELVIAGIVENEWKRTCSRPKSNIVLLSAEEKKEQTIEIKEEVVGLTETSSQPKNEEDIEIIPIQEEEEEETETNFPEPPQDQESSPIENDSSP
The note with it: rituximab versus IgG1-CD20; different epitopes; cited from earlier work.

Data set [1] concerns CD20-expressing Daudi cells. The data set is described as follows: T-cell-mediated cytotoxicity assay with lenalidomide-pre-treated T cells. In kind it is cell-based. The note with it: T cells pre-treated with lenalidomide and anti-CD3; E:T ratio 2:1. The procedure: T cells were incubated with (5 or 50 μM) or without lenalidomide in the absence or presence of immobilized anti-CD3 for 3 days. T cells were then used in a cytotoxicity assay with DuoBody-CD3×CD20 or DuoBody-CD3×ctrl (containing a CD3 arm and a non-binding control arm) and CD20-expressing Daudi cells as target cells (E:T ratio 2:1). Data shown are average percentages cytotoxicity±SD of duplicates, normalized to medium control (no antibody, no lenalidomide).
(§1) Briefly, T cells were activated with immobilized anti-CD3 in the presence (5 or 50 μM) or absence of lenalidomide for 3 days. […] T cells that were activated in the presence or absence of lenalidomide were subsequently tested for their cytotoxic capacity in response to epcoritamab.

Data set [2] has as its system CD20-expressing Raji-luc tumor cells. The note with it: NOD-SCID mice with Raji-luc cells and PBMCs; even with excess IgG1-RTX-FEAR; cited from earlier work.
The subject of data set [3] is primary DLBCL and follicular lymphoma patient biopsies. The note with it: biopsies taken after administration of an anti-CD20 antibody; cited from earlier work.
A further data set deals with T cells. Briefly: T-cell activation with immobilized anti-CD3 in the presence of lenalidomide. The class given is cell-based. The note with it: lenalidomide 5 or 50 μM with CD3 crosslinking, 3 days, vs no lenalidomide. How it is done: T cells were pre-incubated with assay medium or lenalidomide in the absence or presence of CD3 crosslinking by immobilized anti-CD3 for 3 days (as indicated on the x-axes), after which upregulation of CD69, CD25, PD-1 and LAMP-1 on CD4^+ and CD8^+ T cells was determined by flow cytometry. Data shown are geomean fluorescence intensities (FI) for four donors (each circle represents one condition for one donor). Pre-incubation conditions are shown on the x-axis.
as §1

Regarding `CC[C@H](Nc1ncnc2[nH]cnc12)c1nc2cccc(F)c2c(=O)n1-c1ccccc1` [idelalisib], in the data set with follicular lymphoma, the “1-year PFS” value is on record as 43%. Regarding “IgG1-CD20: CD20 antibody of which the CD20 arm of epcoritamab is derived (7D8)”, the “Competition for CD20 binding” value in the data set with CD20 is recorded as “compete for CD20 binding”.

As for “epcoritamab: IgG1 bispecific CD3×CD20 antibody; heavy/light chain pairs SEQ ID NOs: 24/25 and 26/27; CAS 2134641-34-0”, in data set [1], the “Activity at lower epcoritamab concentrations” value is given as “higher activity at lower epcoritamab concentrations” and the Maximum percent cytotoxicity result is “Higher maximum percent cytotoxicity”. In addition, in data set [2], the “Tumor growth in xenograft model” value is “effectively reduce tumor growth”. Besides, the “T-cell-mediated cytotoxicity in patient biopsies” value in data set [3] is listed as “induced T-cell-mediated cytotoxicity”. As for `Nc1cccc2c1CN(C1CCC(=O)NC1=O)C2=O` (stereo not shown) [lenalidomide, 3-(4-Amino-1-oxo-1,3-dihydro-2H-isoindol-2-yl) piperidine-2,6-dione], the “T-cell activation (upregulation of CD69, CD25; release of granzyme B and IFNγ)” value with T cells is recorded as “increased T-cell activation”.
